Each structure is given as a SMILES string.

Series [1] in a line: Stability at pH 1.0. The settings on record: buffer. It counts as physicochemical.
A short description of series [2]: Stability at pH 4.0. The settings on record: buffer. It counts as physicochemical.
For series [3], the target named is T1, Coagulation factor X (Homo sapiens, UniProt P00742). Description: Binding affinity to human f10a.
Another series deals with Plasminogen (Homo sapiens, UniProt P00747). Description: Binding affinity to human plasmin.
Plasminogen, sequence (P00747 97-580 limits assumed): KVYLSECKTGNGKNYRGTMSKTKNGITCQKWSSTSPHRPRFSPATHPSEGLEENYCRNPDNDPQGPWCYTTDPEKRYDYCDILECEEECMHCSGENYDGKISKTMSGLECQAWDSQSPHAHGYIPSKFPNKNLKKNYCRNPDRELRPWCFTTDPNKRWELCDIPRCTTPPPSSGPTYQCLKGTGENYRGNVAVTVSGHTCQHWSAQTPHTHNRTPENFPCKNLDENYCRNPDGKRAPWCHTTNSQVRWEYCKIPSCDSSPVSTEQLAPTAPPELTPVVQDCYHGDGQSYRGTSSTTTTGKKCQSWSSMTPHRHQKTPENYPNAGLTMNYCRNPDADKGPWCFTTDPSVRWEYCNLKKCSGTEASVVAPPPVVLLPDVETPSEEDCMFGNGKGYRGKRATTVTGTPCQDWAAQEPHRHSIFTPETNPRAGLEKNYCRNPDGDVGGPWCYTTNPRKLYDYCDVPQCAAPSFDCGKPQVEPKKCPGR
Plasminogen, sequence (P00747 581-810 limits assumed): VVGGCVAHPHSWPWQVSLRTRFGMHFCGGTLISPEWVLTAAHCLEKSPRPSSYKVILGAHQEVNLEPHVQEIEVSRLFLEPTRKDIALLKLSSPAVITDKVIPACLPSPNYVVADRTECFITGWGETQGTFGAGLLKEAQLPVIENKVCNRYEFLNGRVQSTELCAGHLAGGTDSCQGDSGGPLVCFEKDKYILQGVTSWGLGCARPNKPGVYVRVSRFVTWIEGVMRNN
The target in a further series is Prothrombin (Homo sapiens, UniProt P00734). In words: Binding affinity to human thrombin.
In a further series the target is Coagulation factor IX (Homo sapiens, UniProt P00740). Description: Binding affinity to human f9a.
Coagulation factor IX, sequence (P00740 47-191 limits assumed): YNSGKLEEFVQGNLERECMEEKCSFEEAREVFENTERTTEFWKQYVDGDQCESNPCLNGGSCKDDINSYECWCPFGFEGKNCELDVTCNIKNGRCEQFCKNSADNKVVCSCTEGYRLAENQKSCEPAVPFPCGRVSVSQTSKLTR
Coagulation factor IX, sequence (P00740 227-461 limits assumed): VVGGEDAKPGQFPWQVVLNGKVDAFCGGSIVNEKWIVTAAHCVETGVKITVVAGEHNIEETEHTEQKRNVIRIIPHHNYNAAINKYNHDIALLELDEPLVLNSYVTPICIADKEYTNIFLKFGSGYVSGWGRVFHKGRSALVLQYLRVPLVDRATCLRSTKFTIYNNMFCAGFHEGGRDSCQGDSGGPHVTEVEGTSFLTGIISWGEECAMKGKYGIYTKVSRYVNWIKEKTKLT
Series [4] deals with T2, Coagulation factor X (Oryctolagus cuniculus, UniProt O19045).
T2 sequence (O19045 whole entry): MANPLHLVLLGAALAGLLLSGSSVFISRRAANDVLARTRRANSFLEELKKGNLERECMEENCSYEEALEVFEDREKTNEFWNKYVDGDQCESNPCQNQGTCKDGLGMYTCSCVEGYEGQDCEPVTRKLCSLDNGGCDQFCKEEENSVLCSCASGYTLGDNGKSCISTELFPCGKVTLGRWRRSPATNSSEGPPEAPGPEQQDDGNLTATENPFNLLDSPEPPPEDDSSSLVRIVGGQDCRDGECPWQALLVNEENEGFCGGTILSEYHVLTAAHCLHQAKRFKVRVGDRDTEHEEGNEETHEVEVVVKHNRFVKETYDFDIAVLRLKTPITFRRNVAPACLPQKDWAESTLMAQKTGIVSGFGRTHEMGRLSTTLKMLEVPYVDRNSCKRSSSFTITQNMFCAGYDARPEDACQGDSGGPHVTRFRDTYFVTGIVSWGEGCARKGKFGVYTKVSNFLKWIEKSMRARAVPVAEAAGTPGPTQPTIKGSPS
Description: Binding affinity to rabbit f10a.

Series [5] has as its target Vitamin K-dependent protein C (Homo sapiens, UniProt P04070). Description: Binding affinity to human activated protein C.
A short description of series [6]: Protein binding in rabbit plasma. Type of series: ADME, organism-based, Oryctolagus cuniculus. The settings on record: read-out: PPB (converted).
The target of series [7] is Urokinase-type plasminogen activator (Homo sapiens, UniProt P00749). In words: Binding affinity to human urokinase.
A further series concerns the target Chymotrypsinogen B (Homo sapiens, UniProt P17538). Description: Binding affinity to human chymotrypsin.
The target in series [8] is Tissue-type plasminogen activator (Homo sapiens, UniProt P00750). Description: Binding affinity to human tPA.
Tissue-type plasminogen activator, sequence (P00750 whole entry): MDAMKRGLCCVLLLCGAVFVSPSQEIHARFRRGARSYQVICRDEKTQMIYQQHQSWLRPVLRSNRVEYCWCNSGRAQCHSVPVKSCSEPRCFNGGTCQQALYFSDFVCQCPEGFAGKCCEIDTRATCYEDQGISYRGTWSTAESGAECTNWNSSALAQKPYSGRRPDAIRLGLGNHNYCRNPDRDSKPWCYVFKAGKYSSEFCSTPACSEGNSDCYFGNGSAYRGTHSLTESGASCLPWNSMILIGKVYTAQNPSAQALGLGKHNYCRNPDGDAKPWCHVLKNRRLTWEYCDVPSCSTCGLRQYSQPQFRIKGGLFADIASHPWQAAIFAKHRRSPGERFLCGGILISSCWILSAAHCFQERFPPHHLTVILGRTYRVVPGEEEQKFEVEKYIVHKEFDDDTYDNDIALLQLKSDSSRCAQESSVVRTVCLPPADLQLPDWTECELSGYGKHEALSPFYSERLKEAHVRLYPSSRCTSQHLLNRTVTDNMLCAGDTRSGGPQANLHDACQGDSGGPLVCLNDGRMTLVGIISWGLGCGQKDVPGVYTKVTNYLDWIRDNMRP
In a further series the target is Trypsin (Homo sapiens, UniProt P07477+P07478+P35030). In words: Binding affinity to human trypsin. Type of series: protein assay.
Another series has as its system Oryctolagus cuniculus. In words: Inhibition of thrombus formation in iv dosed rabbit arterio-venous shunt model. It counts as functional, organism-based.
The target in series [9] is T1, Coagulation factor X. Description: Anticoagulant activity in human plasma measured as activated partial thromboplastin time. Type of series: functional, cell-free.
In series [10] the target is Coagulation factor VII/tissue factor (Homo sapiens) (UniProt P08709+P13726). In words: Anticoagulant activity in human plasma measured as prothrombin time. It counts as functional, cell-free.

Vitamin K-dependent protein C, sequence (P04070 43-197 limits assumed): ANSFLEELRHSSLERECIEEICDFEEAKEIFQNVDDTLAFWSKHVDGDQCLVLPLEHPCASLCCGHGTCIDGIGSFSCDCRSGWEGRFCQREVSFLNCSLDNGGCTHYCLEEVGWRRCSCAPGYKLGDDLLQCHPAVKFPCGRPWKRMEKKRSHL
Vitamin K-dependent protein C, sequence (P04070 212-461 limits assumed): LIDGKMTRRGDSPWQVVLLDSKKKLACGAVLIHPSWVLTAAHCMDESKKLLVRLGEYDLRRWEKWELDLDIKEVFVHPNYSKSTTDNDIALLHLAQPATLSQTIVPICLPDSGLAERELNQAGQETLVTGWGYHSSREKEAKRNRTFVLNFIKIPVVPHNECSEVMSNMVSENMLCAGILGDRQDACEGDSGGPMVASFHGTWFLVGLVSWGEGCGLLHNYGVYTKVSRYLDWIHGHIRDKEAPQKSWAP
Chymotrypsinogen B, sequence (P17538 34-164 limits assumed, other chains not shown): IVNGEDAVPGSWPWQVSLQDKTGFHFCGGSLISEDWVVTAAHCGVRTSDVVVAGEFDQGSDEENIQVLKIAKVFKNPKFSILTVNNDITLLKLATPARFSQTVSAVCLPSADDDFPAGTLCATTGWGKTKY
Chymotrypsinogen B, sequence (P17538 167-263 limits assumed, other chains not shown): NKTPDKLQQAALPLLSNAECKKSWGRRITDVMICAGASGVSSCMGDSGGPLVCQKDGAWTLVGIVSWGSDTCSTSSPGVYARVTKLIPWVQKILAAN
T1 sequence (P00742 41-179 limits assumed): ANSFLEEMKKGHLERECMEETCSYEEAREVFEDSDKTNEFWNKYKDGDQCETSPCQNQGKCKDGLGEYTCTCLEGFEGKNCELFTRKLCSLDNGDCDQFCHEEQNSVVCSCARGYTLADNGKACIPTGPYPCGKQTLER
T1 sequence (P00742 235-488 limits assumed): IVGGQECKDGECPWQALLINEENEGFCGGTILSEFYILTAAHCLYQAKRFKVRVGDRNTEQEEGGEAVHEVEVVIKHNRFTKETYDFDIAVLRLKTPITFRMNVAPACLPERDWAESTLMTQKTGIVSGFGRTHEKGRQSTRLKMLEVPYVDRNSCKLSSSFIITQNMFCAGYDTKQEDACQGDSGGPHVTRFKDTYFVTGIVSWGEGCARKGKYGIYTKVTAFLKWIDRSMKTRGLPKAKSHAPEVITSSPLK

A word on the Ki: it is the equilibrium dissociation constant of an inhibitor or competing ligand from its target. Higher therefore signals weaker binding. For the molecule `Cc1nn(-c2ccc3onc(N)c3c2)c2c(=O)n(-c3ccc(-c4ccccc4CN(C)C)cc3)cnc12`, the Stability in series [1] was 97.2%; in [2], 90.1%. At Coagulation factor X [3], the Ki was found to be 0.53 nM.

For the molecule `Cc1nn(-c2ccc3onc(N)c3c2)c2c(=O)n(-c3ccc(-c4ccccc4CN4CC[C@@H](O)C4)cc3)c(C)nc12`, the Ki was over 15000 nM on Plasminogen; 245 nM at Prothrombin; over 41000 nM on Coagulation factor IX; 0.59 nM on Coagulation factor X [4]; over 76000 nM in [5]; over 13000 nM in series [7]. Further, the Ki at Chymotrypsinogen B was 580 nM; in [8], over 33000 nM; at Coagulation factor X [3], 0.37 nM; at Trypsin, over 4200 nM. Further, the fraction unbound in series [6] was 0.09. Moreover, in the series with Oryctolagus cuniculus, the ID50 is 2.4 µmol/kg/h.

`Cc1nn(-c2ccc3onc(N)c3c2)c2c(=O)n(-c3ccc(-c4ccccc4CN(C)C)cc3)c(C)nc12`: the Ki was over 15000 nM on Plasminogen; 305 nM at Prothrombin; over 41000 nM at Coagulation factor IX; 0.3 nM at Coagulation factor X [4]; 19000 nM in [5]; over 13000 nM in series [7]. The inhibitory constant (Ki) on Chymotrypsinogen B was 960 nM; in series [8], 23000 nM; at Coagulation factor X [3], 0.27 nM; on Trypsin, over 4200 nM. Further, the Stability in series [1] is 89.7%; in series [2] it was 94.7%. Further, the ID50 in the series on Oryctolagus cuniculus was found to be 2 µmol/kg/h.

One may read the IC50 as the concentration at which inhibition is half-maximal. Lower therefore signals inhibition by little substance. For `Cc1nc2c(C(F)(F)F)nn(-c3ccc4onc(N)c4c3)c2c(=O)n1-c1ccc(-c2ccccc2CN(C)C)cc1`, the inhibitory constant (Ki) is over 25000 nM on Plasminogen; 130 nM on Prothrombin; 37000 nM at Coagulation factor IX; 0.2 nM on Coagulation factor X [4]; over 37000 nM in series [5]; over 40000 nM in series [7]. Moreover, the values for the inhibition constant (Ki) (at Chymotrypsinogen B; in series [8]; at Trypsin) were over 11000 nM, over 40000 nM and over 4200 nM, respectively. Further, the fraction unbound in [6] was 0.03. In addition, the ID50 with Oryctolagus cuniculus was 1.9 µmol/kg/h. In the series with Oryctolagus cuniculus (Oryctolagus cuniculus), this molecule showed an IC50 of 290 nM.

Turning to `CN(C)Cc1ccccc1-c1ccc(-n2cnc3c(C(F)(F)F)nn(-c4ccc5onc(N)c5c4)c3c2=O)cc1`, the Stability is 83.2% in series [1] and 72.3% in series [2]. For the same molecule, the 2aPTT on Coagulation factor X [9] was 3.7 µM. The 2PT in series [10] is 2.6 µM. This molecule also yielded an inhibition constant (Ki) at Coagulation factor X [3] of 0.35 nM.

The values above are taken from ChEMBL document CHEMBL1146891, “Preparation of 1-(3-aminobenzo[d]isoxazol-5-yl)-1H-pyrazolo[4,3-d]pyrimidin-7(6H)-ones as potent, selective, and efficacious inhibitors of coagulation factor Xa” (Bioorg Med Chem Lett, 2006).
